Key:
[1] = target: T1, M-phase inducer phosphatase 1 (Homo sapiens, UniProt P30304); experiment: Concentration required to inhibit human Cell division cycle 25A activity
T1 sequence (P30304 whole entry): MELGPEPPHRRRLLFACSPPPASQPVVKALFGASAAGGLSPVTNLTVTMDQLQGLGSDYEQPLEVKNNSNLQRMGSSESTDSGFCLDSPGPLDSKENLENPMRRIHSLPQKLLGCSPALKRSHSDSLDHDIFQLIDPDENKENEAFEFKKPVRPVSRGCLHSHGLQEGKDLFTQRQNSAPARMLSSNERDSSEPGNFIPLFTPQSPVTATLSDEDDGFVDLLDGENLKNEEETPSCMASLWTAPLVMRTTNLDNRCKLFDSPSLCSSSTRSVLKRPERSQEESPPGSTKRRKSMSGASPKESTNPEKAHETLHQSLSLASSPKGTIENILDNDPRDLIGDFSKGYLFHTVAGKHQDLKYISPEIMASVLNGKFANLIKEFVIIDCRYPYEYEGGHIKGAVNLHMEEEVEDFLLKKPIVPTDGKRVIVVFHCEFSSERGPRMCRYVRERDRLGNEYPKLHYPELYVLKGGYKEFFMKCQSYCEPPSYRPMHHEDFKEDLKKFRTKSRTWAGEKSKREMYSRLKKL

[2] = target: T2, M-phase inducer phosphatase 2 (Homo sapiens, UniProt P30305); experiment: Concentration required to inhibit human Cell division cycle 25B activity
T2 sequence (P30305 whole entry): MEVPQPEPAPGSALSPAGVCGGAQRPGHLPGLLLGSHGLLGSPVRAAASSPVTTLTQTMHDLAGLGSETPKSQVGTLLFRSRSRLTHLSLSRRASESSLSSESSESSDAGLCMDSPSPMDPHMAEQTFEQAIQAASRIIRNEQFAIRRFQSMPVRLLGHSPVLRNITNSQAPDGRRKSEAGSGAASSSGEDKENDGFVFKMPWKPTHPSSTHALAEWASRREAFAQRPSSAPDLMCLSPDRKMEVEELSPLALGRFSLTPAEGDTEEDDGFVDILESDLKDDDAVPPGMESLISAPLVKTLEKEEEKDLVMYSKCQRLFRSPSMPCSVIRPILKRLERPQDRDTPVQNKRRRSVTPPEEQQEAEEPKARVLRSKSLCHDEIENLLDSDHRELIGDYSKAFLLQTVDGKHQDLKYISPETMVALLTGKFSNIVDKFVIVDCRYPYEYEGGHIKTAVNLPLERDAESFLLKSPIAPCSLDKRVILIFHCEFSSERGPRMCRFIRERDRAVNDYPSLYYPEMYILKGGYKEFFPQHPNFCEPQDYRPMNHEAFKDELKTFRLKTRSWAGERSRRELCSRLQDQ

[3] = target: T1, M-phase inducer phosphatase 1; experiment: Concentration required to inhibit human Cell division cycle 25A activity; Value ranges from […] to […]

SMILES | IC50 [1] [µM] | IC50 [2] [µM] | IC50 [3] [µM]
CC(C)CCC[C@@H](C)[C@H]1CCC2/C(=C/C(=O)O)CCC[C@@]21C (stereo partly drawn) | 5.5 | 8 | –
C=C1CC[C@H](O)C/C1=C/C=C1\CCC[C@@]2(C)C1CC[C@@H]2[C@H](C)CCCC(C)C (stereo partly drawn) | – | – | 0.89

— ChEMBL document CHEMBL1146660 (Bioorg Med Chem Lett, 2004)
